target: T1, KCNT1 (KNa1.1, Slack) (Homo sapiens, UniProt Q5JUK3); assay: KCNT1 patch clamp assay (SyncroPatch 384PE, tetracycline inducible HEK-TREX cell line); format: cell-based; details: WT KCNT1, HEK-TREX cells, perforated patch, step from -80 mV to 0 mV, room temperature; read-out: WT (KCNT1 inhibition IC50)
T1 construct: expressed in transfected cells; host or cells: HEK-TREX (tetracycline inducible cell line)
T1 sequence (Q5JUK3 1-1230): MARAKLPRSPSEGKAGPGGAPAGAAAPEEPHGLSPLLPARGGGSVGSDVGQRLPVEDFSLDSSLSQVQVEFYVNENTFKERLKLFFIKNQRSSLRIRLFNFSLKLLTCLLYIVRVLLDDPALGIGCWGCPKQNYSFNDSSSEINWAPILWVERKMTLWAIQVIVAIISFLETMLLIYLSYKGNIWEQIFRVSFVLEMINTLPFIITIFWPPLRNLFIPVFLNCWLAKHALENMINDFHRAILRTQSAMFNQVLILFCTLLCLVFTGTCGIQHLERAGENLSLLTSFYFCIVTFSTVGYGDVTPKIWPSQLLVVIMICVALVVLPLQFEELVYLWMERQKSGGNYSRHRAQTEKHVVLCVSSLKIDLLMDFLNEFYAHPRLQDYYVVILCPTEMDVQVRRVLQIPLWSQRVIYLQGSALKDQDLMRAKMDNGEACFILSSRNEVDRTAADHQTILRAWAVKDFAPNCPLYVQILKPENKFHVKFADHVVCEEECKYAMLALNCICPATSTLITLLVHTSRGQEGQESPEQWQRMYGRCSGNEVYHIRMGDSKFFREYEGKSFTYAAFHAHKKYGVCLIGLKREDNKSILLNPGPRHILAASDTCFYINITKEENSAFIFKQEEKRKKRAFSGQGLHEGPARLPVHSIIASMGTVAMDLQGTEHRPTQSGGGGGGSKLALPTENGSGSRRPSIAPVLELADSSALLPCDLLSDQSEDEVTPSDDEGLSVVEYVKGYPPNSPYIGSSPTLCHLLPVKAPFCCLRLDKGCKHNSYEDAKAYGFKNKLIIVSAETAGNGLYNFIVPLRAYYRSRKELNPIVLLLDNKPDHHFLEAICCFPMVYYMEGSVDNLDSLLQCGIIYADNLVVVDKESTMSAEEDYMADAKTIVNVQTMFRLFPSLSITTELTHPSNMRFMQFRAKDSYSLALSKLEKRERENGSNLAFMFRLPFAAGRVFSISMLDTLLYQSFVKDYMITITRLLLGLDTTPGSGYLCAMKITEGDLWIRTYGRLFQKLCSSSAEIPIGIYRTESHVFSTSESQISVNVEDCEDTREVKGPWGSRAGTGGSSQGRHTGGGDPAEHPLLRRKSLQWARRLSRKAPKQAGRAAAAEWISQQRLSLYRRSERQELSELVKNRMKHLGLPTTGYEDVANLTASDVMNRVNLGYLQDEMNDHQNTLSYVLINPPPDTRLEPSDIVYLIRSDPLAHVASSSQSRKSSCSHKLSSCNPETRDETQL
Experimental: Inhibition of KCNT1 (KNa1.1, Slack) was evaluated using a tetracycline inducible cell line (HEK-TREX). Currents were recorded using the SyncroPatch 384PE automated, patch clamp system. Pulse generation and data collection were performed with PatchController384 V1.3.0 and DataController384 V1.2.1 (Nanion Technologies). The access resistance and apparent membrane capacitance were estimated using built-in protocols. Current was recorded in perforated patch mode (10 μM escin) from a population of cells. The cells were lifted, triturated, and resuspended at 800,000 cells/ml. The cells were allowed to recover in the cell hotel prior to experimentation. Currents were recorded at room temperature. The external solution contained the following (in mM): NaCl 105, NMDG 40, KCl 4, MgCl2 1, CaCl2 5, and HEPES 10 (pH=7.4, Osmolarity ˜300 mOsm). The extracellular solution was used as the wash, reference, and compound delivery solution. The internal solution contained the following (in mM): NaCl 70, KF 70, KCl 10, EGTA 5, HEPES 5, and Escin 0.01 (pH=7.2, Osmolarity ˜295 mOsm). Escin is made at a 5 mM stock in water, aliquoted, and stored at −20° C. The compound plate was created at 2× concentrated in the extracellular solution. The compound was diluted to 1:2 when added to the recording well. The amount of DMSO in the extracellular solution was held constant at the level used for the highest tested concentration. A holding potential of −80 mV with a 100 ms step to 0 mV was used. Mean current was measured during the step to 0 mV. […] The average mean current from 3 sweeps was calculated and the percent inhibition of each compound was calculated. The percent inhibition as a function of the compound concentration was fit with a Hill equation to derive IC50, slope, minimum parameters, and maximum parameters. If KCNT1 inhibition was less than 50% at the highest tested concentration or if an IC50 could not be calculated, then a percent inhibition was reported in place of the IC50.
In this table, “A” indicates IC50 of less than or equal to 1 μM; “B” indicates inhibition of between 1 μM to 20 μM; and “C” indicates inhibition of greater than or equal to 20 μM.

IC50	SMILES
≤ 1 µM	Cc1c(-c2ccnc(C(F)(F)F)c2)nn(C)c1CNC(=O)c1cc(C(F)(F)F)nn1C [Compound 1030]
≤ 1 µM	CCn1nc(-c2ccnc(C(F)(F)F)c2)cc1C(C)NC(=O)c1cc(C(F)(F)F)nn1C (single isomer, unassigned) [Compound 1004]
≤ 1 µM	Cn1nc(C(F)F)cc1C(=O)NC1(c2cc(-c3ccnc(C(F)(F)F)c3)nn2C)CC1 [Compound 1034]
1 to 20 µM	CC(NC(=O)c1cc(C(F)(F)F)nn1C)c1cc(C(F)(F)F)nn1C (single isomer, unassigned) [Compound 1014]
≥ 20 µM	CC(C)Oc1cc(C(C)NC(=O)c2cc(C(F)(F)F)nn2C)n(C)n1 (stereo not shown) [Compound 1031]
1 to 20 µM	Cc1cc(-c2cc(C(C)NC(=O)c3cc(C(F)(F)F)nn3C)n(C)n2)ccn1 (single isomer, unassigned) [Compound 1005]
≥ 20 µM	CC(NC(=O)c1cc(C(F)(F)F)nn1C)c1cc(-c2ccc(C(N)=O)cc2)nn1C (stereo not shown) [Compound 1022]
1 to 20 µM	CC(NC(=O)c1cc(C(F)(F)F)nn1C)c1cc(-c2ccccc2)nn1C (single isomer, unassigned) [Compound 1011]
1 to 20 µM	CC(NC(=O)c1cc(C(F)(F)F)nn1C)c1cc(N2CCCCC2)nn1C (stereo not shown) [Compound 1023]
≤ 1 µM	Cn1nc(-c2ccnc(C3CC3)c2)cc1CNC(=O)c1cc(C(F)(F)F)nn1C [Compound 1038]
≤ 1 µM	CCn1nc(-c2ccnc(C(F)(F)F)c2)cc1C(C)NC(=O)c1cc(C(F)(F)F)nn1C (single isomer, unassigned) [Compound 1007]
1 to 20 µM	CC(NC(=O)c1cc(C(F)(F)F)nn1C)c1cc(-c2ccc(C#N)cc2)nn1C (stereo not shown) [Compound 1021]
≤ 1 µM	CC(NC(=O)c1cc(C(F)(F)F)nn1C)c1cc(-c2ccnc(C(F)(F)F)c2)nn1C (stereo not shown) [Compound 1020]
≥ 20 µM	CC(NC(=O)c1cc(C(F)(F)F)nn1C)c1cc(-c2ccc(C#N)nc2)nn1C (stereo not shown) [Compound 1016]
≤ 1 µM	COc1ccc(-c2cc(C(C)NC(=O)c3cc(C(F)(F)F)nn3C)n(C)n2)cn1 (stereo not shown) [Compound 1013]
≤ 1 µM	Cc1cc(-c2cc(CNC(=O)c3cc(C(F)(F)F)nn3C)n(C)n2)c(F)cn1 [Compound 1041]
≤ 1 µM	CCn1nc(-c2ccnc(C(F)(F)F)c2)cc1CNC(=O)c1cc(C(F)(F)F)nn1C [Compound 1029]
1 to 20 µM	Cc1cc(-c2cc(C(C)NC(=O)c3cc(C(F)(F)F)nn3C)n(C)n2)ccn1 (single isomer, unassigned) [Compound 1006]
1 to 20 µM	CC(NC(=O)c1cc(C(F)(F)F)nn1C)c1cc(N(C)C2CCCC2)nn1C (stereo not shown) [Compound 1027]
1 to 20 µM	CC(NC(=O)c1cc(C(F)(F)F)nn1C)c1cc(C(F)(F)F)nn1C (single isomer, unassigned) [Compound 1015]

IC50	SMILES
1 to 20 µM	CC(NC(=O)c1cc(C(F)(F)F)nn1C)c1cc(-c2ccncc2)nn1C (single isomer, unassigned) [Compound 1008]
≤ 1 µM	CC(C)c1cc(C(=O)NCc2cc(-c3ccnc(C(F)(F)F)c3)nn2C)n(C)n1 [Compound 1039]
1 to 20 µM	CC(NC(=O)c1cc(C(F)(F)F)nn1C)c1cc(-c2ccccc2)nn1C (single isomer, unassigned) [Compound 1010]
≥ 20 µM	CC(NC(=O)c1cc(C(F)(F)F)nn1C)c1cc(-c2ccc(CO)nc2)nn1C (stereo not shown) [Compound 1009]
≤ 1 µM	COc1cc(-c2cc(CNC(=O)c3cc(C(F)(F)F)nn3C)n(C)n2)ccn1 [Compound 1036]
≥ 20 µM	CC(NC(=O)c1cc(C(F)(F)F)nn1C)c1cc(NC2CCCC2)nn1C (stereo not shown) [Compound 1026]
≤ 1 µM	Cn1nc(C(F)(F)F)cc1C(=O)NC1(c2cc(-c3ccnc(C(F)(F)F)c3)nn2C)CC1 [Compound 1035]
≥ 20 µM	CC(NC(=O)c1cc(C(F)(F)F)nn1C)c1cc(-c2ccncc2)nn1C (single isomer, unassigned) [Compound 1003]
1 to 20 µM	CC(NC(=O)c1cc(C(F)(F)F)nn1C)c1cc(-c2ccc(C(F)(F)F)nc2)nn1C (stereo not shown) [Compound 1018]
≤ 1 µM	Cn1nc(-c2ccnc(C(F)(F)F)c2)cc1CNC(=O)c1ccccc1 [Compound 1040]
≤ 1 µM	CCOc1cc(-c2cc(CNC(=O)c3cc(C(F)(F)F)nn3C)n(C)n2)ccn1 [Compound 1037]
1 to 20 µM	CC(NC(=O)c1cc(C(F)(F)F)nn1C)c1cc(Cc2ccccc2)nn1C (stereo not shown) [Compound 1028]
≤ 1 µM	Cn1nc(-c2ccnc(C(F)(F)F)c2)cc1CNC(=O)c1cc(C(F)F)nn1C [Compound 1033]
≥ 20 µM	Cc1ncc(-c2cc(C(C)NC(=O)c3cc(C(F)(F)F)nn3C)n(C)n2)cn1 (stereo not shown) [Compound 1012]
≤ 1 µM	CC(NC(=O)c1cc(C(F)(F)F)nn1C)c1cc(-c2ccnc(C(F)(F)F)c2)nn1C (single isomer, unassigned) [Compound 1001]
1 to 20 µM	CC(NC(=O)c1cc(C(F)(F)F)nn1C)c1cc(N(C)c2ccccc2)nn1C (stereo not shown) [Compound 1025]
1 to 20 µM	CC(NC(=O)c1cc(C(F)(F)F)nn1C)c1cc(Nc2ccccc2)nn1C (stereo not shown) [Compound 1024]
1 to 20 µM	Cc1cccc(-c2cc(C(C)NC(=O)c3cc(C(F)(F)F)nn3C)n(C)n2)n1 (stereo not shown) [Compound 1017]
1 to 20 µM	CC(NC(=O)c1cc(C(F)(F)F)nn1C)c1cc(Oc2ccccc2)nn1C (stereo not shown) [Compound 1032]
≤ 1 µM	Cn1nc(-c2ccnc(C(F)(F)F)c2)cc1CNC(=O)c1cc(C(F)(F)F)nn1C [Compound 1019]

Source: patent publication US20250346576A1, “KCNT1 INHIBITORS COMPRISING A PYRAZOLE CORE AND METHODS OF USE” (PRAXIS PRECISION MEDICINES, INC., priority 2022, published 2025)
